Details in all cases: for Plant height relative: control 100
In one assay the test system is wheat. In words: Growth height of wheat, greenhouse (Example 7). Type of assay: in vivo, wheat (Opal variety). From the text:
(§1) In the greenhouse, the four cereals wheat ("Opal" variety), rye ("Petkuser"), barley ("Villa") and oats ("Flamingskrone") were sown in plastic dishes 11.5 cm in diameter in a sandy loam adequately supplied with nutrients. The active ingredients were applied at various rates to the soil and to the leaves. When applied to the soil, the active ingredient were sprayed onto the surface of the soil on the day of sowing; in the case of leaf treatment, the leaves were sprayed in the usual manner at a growth height of the plants of 10 cm. During the 18 day growth period, the treated plants grew much more slowly than the untreated control, a fact later confirmed by measurements of the stem length. Measurements were taken of 100 plants from each series.
(§2) The prior art agent used for comparison purposes was N-2-chloroethyl-N,N,N-trimethylammonium chloride (CCC; German Printed Application DAS No. 1,294,734).

The test system of a further assay is rye. Put plainly: Growth height of rye, greenhouse (Example 8). The class given is in vivo, rye (Petkuser).
Excerpt: as §1, §2

In a further assay the test system is barley. Put plainly: Growth height of barley, greenhouse (Example 9). Type of assay: in vivo, barley (Villa).
Excerpt: as §1, §2

The test system of a further assay is oats. In words: Growth height of oats, greenhouse (Example 10). Type of assay: in vivo, oats (Flamingskrone).
Excerpt: as §1, §2

Consider `Clc1ccc(N2N=NC3C4CC(C5N=NC45)C32)cc1` (stereo not drawn) [drawing 344], for which the Plant height was determined as 28.5 cm in the assay with wheat (soil, 0.5 kg/ha); 23.0 cm with wheat (soil, 1.0 kg/ha); 20.5 cm in the assay with wheat (soil, 2.0 kg/ha); 10.5 cm in the assay with wheat (soil, 6.0 kg/ha). Moreover, the Plant height relative is on record as 91.9 in the assay with wheat (soil, 0.5 kg/ha); 74.2 in the assay with wheat (soil, 1.0 kg/ha); 66.1 in the assay on wheat (soil, 2.0 kg/ha); 33.9 in the assay on wheat (soil, 6.0 kg/ha).

For `Brc1ccc(N2N=NC3C4CC(C5N=NC45)C32)cc1` (stereo not drawn) [drawing 345], the Plant height in the assay on wheat (soil, 0.5 kg/ha) was found to be 27.5 cm; in the assay with wheat (soil, 1.0 kg/ha), 22.5 cm; in the assay with wheat (soil, 2.0 kg/ha), 15.5 cm; with wheat (soil, 6.0 kg/ha), 11.5 cm. For the same molecule, the Plant height relative in the assay on wheat (soil, 0.5 kg/ha) is 88.7; with wheat (soil, 1.0 kg/ha), 72.6; in the assay on wheat (soil, 2.0 kg/ha), 50.0; with wheat (soil, 6.0 kg/ha), 31.7.

For the molecule `Clc1ccc(N2N=NC3C4CC(C5N=NC45)C32)cc1` (stereo not drawn) [drawing 346], the Plant height in the assay with wheat (leaf, 0.125 kg/ha) came to 24.0 cm; in the assay with wheat (leaf, 0.5 kg/ha) it was 22.0 cm; in the assay with wheat (leaf, 1.0 kg/ha) it was 20.0 cm; with wheat (leaf, 2.0 kg/ha) it was 19.0 cm; with wheat (leaf, 4.0 kg/ha) it was 17.5 cm. For the same molecule, the Plant height relative is given as 80.0 in the assay with wheat (leaf, 0.125 kg/ha); 73.3 in the assay with wheat (leaf, 0.5 kg/ha); 66.6 in the assay with wheat (leaf, 1.0 kg/ha); 63.3 with wheat (leaf, 2.0 kg/ha); 58.3 in the assay on wheat (leaf, 4.0 kg/ha).

In the case of `Brc1ccc(N2N=NC3C4CC(C5N=NC45)C32)cc1` (stereo not drawn) [drawing 347], the Plant height in the assay with wheat (leaf, 0.125 kg/ha) turned out to be 25.0 cm; in the assay on wheat (leaf, 0.5 kg/ha), 23.5 cm; with wheat (leaf, 1.0 kg/ha), 21.0 cm; in the assay with wheat (leaf, 2.0 kg/ha), 21.5 cm; with wheat (leaf, 4.0 kg/ha), 20.0 cm. For the same molecule, the Plant height relative is 83.3 with wheat (leaf, 0.125 kg/ha); 78.3 with wheat (leaf, 0.5 kg/ha); 70.0 in the assay on wheat (leaf, 1.0 kg/ha); 71.7 in the assay on wheat (leaf, 2.0 kg/ha); 66.7 in the assay on wheat (leaf, 4.0 kg/ha).

On to `Clc1ccc(N2N=NC3C4CC(C5N=NC45)C32)cc1` (stereo not drawn) [drawing 348], for which the Plant height is reported as 22.5 cm in the assay with rye (soil, 0.5 kg/ha); 19.0 cm in the assay with rye (soil, 1.0 kg/ha); 13.0 cm in the assay with rye (soil, 2.0 kg/ha); 8.5 cm in the assay with rye (soil, 6.0 kg/ha). For the same molecule, the Plant height relative in the assay with rye (soil, 0.5 kg/ha) is on record as 77.6; with rye (soil, 1.0 kg/ha), 65.5; in the assay with rye (soil, 2.0 kg/ha), 44.8; with rye (soil, 6.0 kg/ha) it was 29.3.

As to `Brc1ccc(N2N=NC3C4CC(C5N=NC45)C32)cc1` (stereo not drawn) [drawing 349], the Plant height in the assay on rye (soil, 0.5 kg/ha) was determined as 23.0 cm; in the assay with rye (soil, 1.0 kg/ha), 22.5 cm; with rye (soil, 2.0 kg/ha), 19.0 cm; in the assay on rye (soil, 6.0 kg/ha), 9.0 cm. The Plant height relative was 79.3 in the assay with rye (soil, 0.5 kg/ha); 77.6 with rye (soil, 1.0 kg/ha); 65.5 in the assay with rye (soil, 2.0 kg/ha); 31.0 with rye (soil, 6.0 kg/ha).

Regarding `Clc1ccc(N2N=NC3C4CC(C5N=NC45)C32)cc1` (stereo not drawn) [drawing 350], the Plant height in the assay with rye (leaf, 0.125 kg/ha) is on record as 24.5 cm; in the assay with rye (leaf, 0.5 kg/ha), 20.0 cm; with rye (leaf, 1.0 kg/ha), 18.5 cm; in the assay on rye (leaf, 2.0 kg/ha) it was 17.5 cm; in the assay with rye (leaf, 4.0 kg/ha), 16.0 cm. Moreover, the Plant height relative is reported as 83.1 in the assay with rye (leaf, 0.125 kg/ha); 67.8 with rye (leaf, 0.5 kg/ha); 62.7 in the assay on rye (leaf, 1.0 kg/ha); 59.3 with rye (leaf, 2.0 kg/ha); 54.2 with rye (leaf, 4.0 kg/ha).

`Brc1ccc(N2N=NC3C4CC(C5N=NC45)C32)cc1` (stereo not drawn) [drawing 351]: the Plant height is recorded as 25.0 cm in the assay with rye (leaf, 0.125 kg/ha); 20.5 cm in the assay with rye (leaf, 0.5 kg/ha); 22.0 cm in the assay with rye (leaf, 1.0 kg/ha); 18.0 cm in the assay with rye (leaf, 2.0 kg/ha); 18.5 cm in the assay on rye (leaf, 4.0 kg/ha). The Plant height relative amounted to 84.7 in the assay with rye (leaf, 0.125 kg/ha); 69.5 in the assay with rye (leaf, 0.5 kg/ha); 74.6 with rye (leaf, 1.0 kg/ha); 61.0 with rye (leaf, 2.0 kg/ha); 62.7 in the assay on rye (leaf, 4.0 kg/ha).

In the case of `Clc1ccc(N2N=NC3C4CC(C5N=NC45)C32)cc1` (stereo not drawn) [drawing 352], the Plant height in the assay on barley (soil, 0.5 kg/ha) came to 28.0 cm; with barley (soil, 1.0 kg/ha), 28.0 cm; in the assay with barley (soil, 2.0 kg/ha), 23.5 cm; with barley (soil, 6.0 kg/ha), 16.5 cm. In addition, the Plant height relative with barley (soil, 0.5 kg/ha) was 88.9; in the assay on barley (soil, 1.0 kg/ha) it was 88.9; with barley (soil, 2.0 kg/ha) it was 74.6; in the assay on barley (soil, 6.0 kg/ha), 52.4.

With `Brc1ccc(N2N=NC3C4CC(C5N=NC45)C32)cc1` (stereo not drawn) [drawing 353], the Plant height with barley (soil, 0.5 kg/ha) stood at 30.5 cm; in the assay on barley (soil, 1.0 kg/ha) it was 29.0 cm; in the assay with barley (soil, 2.0 kg/ha), 24.5 cm; with barley (soil, 6.0 kg/ha), 19.0 cm. Also, the Plant height relative with barley (soil, 0.5 kg/ha) came out at 96.8; in the assay with barley (soil, 1.0 kg/ha), 92.1; with barley (soil, 2.0 kg/ha) it was 77.8; in the assay with barley (soil, 6.0 kg/ha), 60.3.

Take `Clc1ccc(N2N=NC3C4CC(C5N=NC45)C32)cc1` (stereo not drawn) [drawing 354]: the Plant height worked out at 24.0 cm in the assay on barley (leaf, 0.125 kg/ha); 23.0 cm in the assay on barley (leaf, 0.5 kg/ha); 21.5 cm in the assay on barley (leaf, 1.0 kg/ha); 20.5 cm with barley (leaf, 2.0 kg/ha); 18.5 cm in the assay with barley (leaf, 4.0 kg/ha). The Plant height relative in the assay on barley (leaf, 0.125 kg/ha) came to 80.0; in the assay on barley (leaf, 0.5 kg/ha), 76.7; with barley (leaf, 1.0 kg/ha), 71.7; in the assay on barley (leaf, 2.0 kg/ha), 68.3; in the assay on barley (leaf, 4.0 kg/ha) it was 61.7.

For the molecule `Brc1ccc(N2N=NC3C4CC(C5N=NC45)C32)cc1` (stereo not drawn) [drawing 355], the Plant height in the assay with barley (leaf, 0.125 kg/ha) amounted to 25.5 cm; with barley (leaf, 0.5 kg/ha) it was 23.5 cm; in the assay with barley (leaf, 1.0 kg/ha), 22.0 cm; with barley (leaf, 2.0 kg/ha) it was 20.5 cm; in the assay on barley (leaf, 4.0 kg/ha), 20.0 cm. Further, the Plant height relative turned out to be 85.0 in the assay on barley (leaf, 0.125 kg/ha); 78.3 in the assay on barley (leaf, 0.5 kg/ha); 73.3 in the assay with barley (leaf, 1.0 kg/ha); 68.3 in the assay on barley (leaf, 2.0 kg/ha); 66.7 with barley (leaf, 4.0 kg/ha).

As to `Clc1ccc(N2N=NC3C4CC(C5N=NC45)C32)cc1` (stereo not drawn) [drawing 356], the Plant height in the assay on oats (soil, 0.5 kg/ha) was found to be 25.0 cm; in the assay with oats (soil, 1.0 kg/ha) it was 24.0 cm; with oats (soil, 2.0 kg/ha) it was 21.0 cm; in the assay with oats (soil, 6.0 kg/ha), 15.0 cm. Further, the Plant height relative amounted to 89.3 in the assay with oats (soil, 0.5 kg/ha); 85.7 in the assay on oats (soil, 1.0 kg/ha); 75.0 in the assay on oats (soil, 2.0 kg/ha); 53.6 with oats (soil, 6.0 kg/ha).

With `Brc1ccc(N2N=NC3C4CC(C5N=NC45)C32)cc1` (stereo not drawn) [drawing 357], the Plant height turned out to be 28.0 cm in the assay with oats (soil, 0.5 kg/ha); 26.5 cm in the assay with oats (soil, 1.0 kg/ha); 24.5 cm in the assay with oats (soil, 2.0 kg/ha); 15.5 cm with oats (soil, 6.0 kg/ha). Moreover, the Plant height relative is given as 100 with oats (soil, 0.5 kg/ha); 94.6 in the assay with oats (soil, 1.0 kg/ha); 87.5 in the assay on oats (soil, 2.0 kg/ha); 55.4 with oats (soil, 6.0 kg/ha).

On to `Clc1ccc(N2N=NC3C4CC(C5N=NC45)C32)cc1` (stereo not drawn) [drawing 358], for which the Plant height turned out to be 23.5 cm in the assay with oats (leaf, 0.125 kg/ha); 22.5 cm with oats (leaf, 0.5 kg/ha); 21.0 cm in the assay with oats (leaf, 1.0 kg/ha); 19.0 cm with oats (leaf, 2.0 kg/ha); 17.0 cm with oats (leaf, 4.0 kg/ha). The Plant height relative in the assay on oats (leaf, 0.125 kg/ha) came out at 83.9; with oats (leaf, 0.5 kg/ha) it was 80.4; in the assay with oats (leaf, 1.0 kg/ha), 75.0; in the assay with oats (leaf, 2.0 kg/ha) it was 67.9; in the assay with oats (leaf, 4.0 kg/ha) it was 60.7.

Take `Brc1ccc(N2N=NC3C4CC(C5N=NC45)C32)cc1` (stereo not drawn) [drawing 359]: the Plant height in the assay with oats (leaf, 0.125 kg/ha) was 25.5 cm; in the assay with oats (leaf, 0.5 kg/ha) it was 25.0 cm; in the assay on oats (leaf, 1.0 kg/ha) it was 22.5 cm; with oats (leaf, 2.0 kg/ha), 22.5 cm; in the assay with oats (leaf, 4.0 kg/ha), 22.0 cm. Moreover, the Plant height relative in the assay on oats (leaf, 0.125 kg/ha) stood at 91.1; with oats (leaf, 0.5 kg/ha), 89.3; in the assay on oats (leaf, 1.0 kg/ha), 80.4; in the assay on oats (leaf, 2.0 kg/ha), 80.4; in the assay on oats (leaf, 4.0 kg/ha), 78.6.
